“Also recorded” adds a separate entry of the source. Read-outs that look alike come from different tables or passages of the source.
Assays:
R17 bacteriophage [1] = test: R17 bacteriophage inactivation assay, varying compound concentration; type: cell-based; details: for R17 inactivation efficiency compared with AMT or 8-MOP (in words): varying concentration, Tables 6-9, FIGS. 6-10
Protocol: An r-17 bacteriophage assay was used in this example to predict pathogen inactivation efficiency and to determine nucleic acid binding of the photoreactive binding compounds of the present invention. In the r-17 assay, the bacteriophage was placed in a solution with each compound tested and was then irradiated. The ability of the phage to subsequently infect bacteria and inhibit their growth was measured. The bacteriophage was selected for its relatively accessible nucleic acid such that the culture growth inhibition would accurately reflect nucleic acid damage by the test compounds. The bacteriophage assay for nucleic acid binding to test compounds offers a safe and inexpensive procedure to identify compounds likely to display efficient pathogen inactivation.
The R17 was grown up in Hfr 3000 bacteria, approximate titer 5×10^11. (R17 and Hfr 3000 were obtained from American Tissue Culture Collection (ATCC), Washington, D.C.) The R17 phage stock was added to a solution of 15% fetal bovine serum in Dulbecco's Modified Eagles Medium (DMEM) to a final phage concentration of 10^9/mL. An aliquot (0.5 mL) was transferred to a 1.5 mL snap-top polyethylene tube. An aliquot (0.004-0.040 mL) of the test compound stock solution prepared in water, ethanol or dimethylsulfoxide at 0.80-8.0 mM was added to the tube. Compounds were tested at concentrations between 4 μM and 320 μM. […] The tubes were placed in a light device as described in EXAMPLE 1 and irradiated for between 1 and 10 minutes. Sterile 13 mL dilution tubes were prepared; each test compound required one tube with 0.4 mL of Luria broth (LB) and five tubes containing 0.5 mL of LB broth. To make the dilutions, a 0.100 mL aliquot of the irradiated solution of phage and test compound was added to the first dilution tube of 0.4 mL of media then 0.020 mL of this solution was added to the second tube of 0.5 mL medium (1:25). The second solution was then diluted serially (1:25) into the remaining tubes. To each diluted sample was added 0.050 mL of Hfr 3000 bacteria cultured overnight and 3 mL of molten LB top agar and the mixed materials were poured onto LB broth plates. After the top agar hardened, the plates were incubated at 37° C. overnight. The plaque forming units were then counted the following morning and the titer of the phage remaining after phototreatment was calculated based on the dilution factors.
The following controls were run: the “phage only” in which phage was not treated with test compound and not irradiated (listed as “starting titer” in the tables below); the “UV only” in which the phage was irradiated in the absence of test compound; and the “dark” control in which the phage/test compound solution was not irradiated before it was diluted and plated.

[2] = system: Salmonella typhimurium tester strains; test: Ames Salmonella dark mutagenicity test, overall assessment; type: cell-based; details: two-fold or greater increase in revertants above background and dose dependence
Protocol: A brief description for each procedure is given here. […] TA97a, TA98, TA1537 and TA1538 are frameshift tester strains. TA100 and TA102 are base-substitution tester strains.
This served as the background controls.
For all experiments, the pre-incubation procedure was used.

HIV-1 = details: for HIV Log Kill: 1 minute irradiation
Protocol: As in the R17 assay, small aliquots of the compounds listed in TABLES 10 and 11, below, at the concentrations listed in the table, were added to stock HIV-1 to a total of 0.5 mL. The stock HIV (10^5−10^7 plaque forming units/mL) was in DMEM15% FBS. […] Controls included HIV-1 stock only, HIV-1 plus UVA only, and HIV-1 plus the highest concentration of each psoralen tested, with no UVA. Post irradiation, all samples were store frozen at −70° C. until assayed for infectivity by a microtiter plaque assay. Aliquots for measurement of residual HIV infectivity in the samples treated with a compound of the present invention were withdrawn and cultured.
Residual HIV infectivity was assayed using an MT-2 infectivity assay. […] The assay medium was 85% DMEM (with a high glucose concentration) containing 100 μg of streptomycin, 100 U of penicillin, 50 μg of gentamicin, and 1 μg of amphotericin B per mL, 15% FBS and 2 μg of Polybrene (Sigma Chemical Co., St. Louis, Mo.) per mL. Test and control samples from the inactivation procedure were diluted in 50% assay medium and 50% normal human pooled plasma The samples were serially diluted directly in 96-well plates (Corning Glass Works, Corning, N.Y.). The plates were mixed on an oscillatory shaker for 30 seconds and incubated at 37° C. in a 5% CO2 atmosphere for 1 to 18 hours. […] After an additional 1 hour of incubation at 37° C. in 5% CO2, 0.075 mL of assay medium containing 1.6% SeaPlaque agarose (FMC Bioproducts, Rockland, Me.) and prewarmed to 38.5° C. was added to each well. The plates were kept at 37° C. for a few minutes until several plates had accumulated and then centrifuged in plate carriers at 600×g for 20 minutes in a centrifuge precooled to 10° C. In the centrifuge, cell monolayers formed prior to gelling of the agarose layer. The plates were incubated for 5 days at 37° C. in 5% CO2 and stained by the addition of 0.05 mL of 50 μg/mL propidium iodide (Sigma Chemical Co.) in phosphate-buffered saline (pH 7.4) to each well. After 24 to 48 hours, the red fluorescence-stained microplaques were visualized by placing the plates on an 8,000 μW/cm^2304 nm UV light box (Fotodyne, Inc., New Berlin, Wis.). The plaques were counted at a magnification of x20 to x25 through a stereomicroscope.

[3] = system: Salmonella tester strain TA1538
Protocol: (§1) In this example the compounds of the present invention are tested for their dark mutagenicity using an Ames assay. The procedures used for the Salmonella mutagenicity test as described in detail by Maron and Ames were followed exactly. Maron, D. M. and B. N. Ames, Mutation Research 113: 173 ( 1983). A brief description for each procedure is given here. The tester strains TA97a, TA98, TA100, TA102, TA1537 and TA1538 were obtained from Dr. Ames. TA97a, TA98, TA1537 and TA1538 are frameshift tester strains. TA100 and TA102 are base-substitution tester strains. Upon receipt each strain was cultured under a variety of conditions to confirm the genotypes specific to the strains.
(§2) The first tests done with the strains were to determine the range of spontaneous reversion for each of the strains. With each mutagenicity experiment the spontaneous reversion of the tester strains to histidine independence was measured and expressed as the number of spontaneous revertants per plate. This served as the background controls.
(§3) For all experiments, the pre-incubation procedure was used. In this procedure one vial of each tester strain was thawed and 20 μL of this culture was added to 6 mL of Oxoid Nutrient Broth #2. This solution was allowed to shake for 10 hours at 37° C. In the pre-incubation procedure, 0.1 mL of this overnight culture was added to each of the required number of sterile test tubes. To half of the tubes 0.5 mL of a 10% S-9 solution containing Aroclor 1254 induced rat liver extract (Molecular Toxicology Inc., Annapolis, Md.), and MgCl2, KCl, glucose-6-phosphate, NADP, and sodium phosphate buffer (Sigma, St. Louis, Mo.) were added. To the other half of the tubes 0.5 mL of 0.2M sodium phospate buffer, pH 7.4, was used in place of the S-9 mixture (the—S9samples). Finally 0.1 mL of the test solution containing either 0, 0.1, 0.5, 1, 5, 10, 50, 100, 250, or 500 μg/mL of the test compound was added. The 0.7 mL mixture was vortexed and then pre-incubated while shaking for 20 minutes at 37° C. After shaking, 2 mL of molten top agar supplemented with histidine and biotin were added to the 0.7 mL mixture and immediately poured onto a minimal glucose agar plate (volume of base agar was 20 mL). The top agar was allowed 30 minutes to solidify and then the plates were inverted and incubated for 44 hours at 37° C. After incubation the number of revertant colonies on each plate were counted. […] (“n” represents the number of replicates performed for each data point.)

[4] = system: Salmonella tester strain TA100
Protocol: as §1, §2, §3

R17 bacteriophage [5] = test: R17 bacteriophage inactivation at constant concentration, varying doses of UV light; type: cell-based; details: 1.0-3.0 J/cm^2, FIGS. 11-17
Protocol: Compounds of the present invention were also tested at a constant concentration for varying doses of UV light. Three sets of 1.5 mL tubes were prepared containing 0.6mL aliquots of R17 in DMEM (prepared as described above). The compound tested was added at the desired concentration and the samples were vortexed. The samples were then irradiated at intervals of 1.0 J/cm^2, until 3.0 J/cm^2 was reached. Between each 1.0 J/cm^2 interval, 100 μL was removed from each sample and placed in the first corresponding dilution tube, then five sequential dilutions were performed for each compound tested, at all 3 irradiation doses, as described above in this example.
Then 50 μL of Hfr 3000 bacteria was added to each tube, 3 mL of top agar was added and the tube contents were vortexed The contents of each tube was poured into its own LB plate and the plates were incubated overnight at 37° C. Plaques were counted by visual inspection the following morning.

[6] = 8 μM, starting titer approx. 7.2 logs, 1 minute irradiation (Table 7)
[7] = 16 μM, starting titer approx. 7.2 logs, 1 minute irradiation (Table 7)
[8] = 32 μM, starting titer approx. 7.2 logs, 1 minute irradiation (Table 7)
[9] = Experiment 1, 32 μM compound, 1′ uva
[10] = Experiment 1, 32 μM compound, 10′ uva
[11] = Experiment 1, compound only (32 μM), no uva
[12] = Experiment 2, 3.2 μM compound, 1′ uva
[13] = Experiment 2, 3.2 μM compound, 10′ uva
[14] = Experiment 2, compound only (3.2 μM), no uva
[15] = Experiment 3, 4 μM compound, 1′ uva
[16] = Experiment 3, 8 μM compound, 1′ uva
[17] = Experiment 3, 16 μM compound, 1′ uva
[18] = Experiment 3, compound only (16 μM), no uva
[19] = 64 μM, starting titer approximately 5 logs (Table 10)
[20] = 16 μM, starting titer approx. 7.1 logs, 1 minute irradiation = 1.2 J/cm^2 (Table 8)
[21] = 32 μM, starting titer approximately 5 logs (Table 10)
[22] = 16 μM, starting titer approximately 5.4 logs (Table 11)
[23] = 32 μM, starting titer approximately 5.4 logs (Table 11)
[24] = 64 μM, starting titer approximately 5.4 logs (Table 11)

## Cc1oc2c(C)c3oc(=O)cc(C)c3cc2c1CNCCN [Compound 1, 4′-(4-amino-2-aza)butyl-4,5′,8-trimethylpsoralen]
R17 bacteriophage [1]; [6]
  R17 Log Kill: 1.7 log
R17 bacteriophage [1]; [7]
  R17 Log Kill: 2.8 log
R17 bacteriophage [1]; [8]
  R17 Log Kill: 5.3 log
R17 bacteriophage [1]; 32 μM, starting titer approx. 7.5 logs, 1 minute irradiation
  R17 log kill (32 μM): >6.6 log
R17 bacteriophage [1]; [9]
  Log Titer: <1
  Logs Killed: >6.7 logs
R17 bacteriophage [1]; [10]
  Log Titer: <1
  Logs Killed: >6.7 logs
R17 bacteriophage [1]; [11]
  Log Titer: 7.6
  Logs Killed: 0.1 logs
R17 bacteriophage [1]; [12]
  Log Titer: 6.9
  Logs Killed: 0.9 logs
R17 bacteriophage [1]; [13]
  Log Titer: 6.1
  Logs Killed: 1.7 logs
R17 bacteriophage [1]; [14]
  Log Titer: 7.7
  Logs Killed: 0.1 logs
R17 bacteriophage [1]; [15]
  Log Titer: 6.3
  Logs Killed: 1.0 logs
R17 bacteriophage [1]; [16]
  Log Titer: 5.6
  Logs Killed: 1.7 logs
R17 bacteriophage [1]; [17]
  Log Titer: 3.9
  Logs Killed: 3.4 logs
R17 bacteriophage [1]; [18]
  Log Titer: 7.3
  Logs Killed: 0 logs
R17 bacteriophage [1]
  R17 inactivation efficiency compared with AMT or 8-MOP (in words): much higher R17 inactivation efficiency than does 8-MOP
[2]
  mutagenic response in the Ames assay (in words): weak frameshift mutagen in TA1538 at 5 μg/plate in the presence of S9; also recorded: displayed mutation in the TA100 strain, but only in the absence of S9
HIV-1; [19]
  HIV Log Kill: 2.1 log
[3]; TA1538 + S9, 5 μg/plate
  revertant colonies per plate: 21
[3]; TA1538 + S9, 10 μg/plate
  revertant colonies per plate: 22
[3]; TA1538 − S9, 5 μg/plate
  revertant colonies per plate: 10
[3]; TA1538 − S9, 10 μg/plate
  revertant colonies per plate: 12
[4]; TA100 + S9, 5 μg/plate
  revertant colonies per plate: −24
[4]; TA100 + S9, 10 μg/plate
  revertant colonies per plate: −22
[4]; TA100 − S9, 5 μg/plate
  revertant colonies per plate: 292
[4]; TA100 − S9, 10 μg/plate
  revertant colonies per plate: 337

## Cc1oc2c(C)c3oc(=O)cc(C)c3cc2c1CCN [Compound 3, 4′-(2-aminoethyl)-4,5′,8-trimethylpsoralen]
R17 bacteriophage [1]; 8 μM, starting titer approx. 7.1 logs, 1 minute irradiation = 1.2 J/cm^2 (Table 8)
  R17 Log Kill: 5.6 log
R17 bacteriophage [1]; [6]
  R17 Log Kill: >6.2 log
R17 bacteriophage [1]; [20]
  R17 Log Kill: >6.1 log
R17 bacteriophage [1]; [7]
  R17 Log Kill: >6.2 log
R17 bacteriophage [1]; [8]
  R17 Log Kill: >6.2 log
R17 bacteriophage [1]
  R17 inactivation efficiency compared with AMT or 8-MOP (in words): significantly higher inactivation efficiency than does AMT
[2]
  mutagenic response in the Ames assay (in words): no mutagenicity
HIV-1; [21]
  HIV Log Kill: 2.7 log
HIV-1; [19]
  HIV Log Kill: >3.8 log
HIV-1; cell-free HIV, 64 μM of compound or higher for compounds 2 and 3
  HIV inactivation compared with AMT (in words): significantly more active than AMT
[3]; TA1538 + S9, 5 μg/plate
  revertant colonies per plate: 1
[3]; TA1538 + S9, 10 μg/plate
  revertant colonies per plate: 9
[3]; TA1538 − S9, 5 μg/plate
  revertant colonies per plate: 0
[3]; TA1538 − S9, 10 μg/plate
  revertant colonies per plate: −6
[4]; TA100 + S9, 5 μg/plate
  revertant colonies per plate: −19
[4]; TA100 + S9, 10 μg/plate
  revertant colonies per plate: 8
[4]; TA100 − S9, 5 μg/plate
  revertant colonies per plate: 47
[4]; TA100 − S9, 10 μg/plate
  revertant colonies per plate: 47

## Cc1oc2c(C)c3oc(=O)cc(C)c3cc2c1COCCCN [Compound 4, 4′-(5-amino-2-oxa)pentyl-4,5′,8-trimethylpsoralen]
R17 bacteriophage [1]; [20]
  R17 Log Kill: 2.3 log
R17 bacteriophage [1]; 32 μM, starting titer approx. 7.1 logs, 1 minute irradiation = 1.2 J/cm^2 (Table 8)
  R17 Log Kill: 4.3 log
R17 bacteriophage [1]; 64 μM, starting titer approx. 7.1 logs, 1 minute irradiation = 1.2 J/cm^2 (Table 8)
  R17 Log Kill: >6.1 log
[2]
  mutagenic response in the Ames assay (in words): no mutagenicity
HIV-1; [21]
  HIV Log Kill: 2.2 log
HIV-1; [19]
  HIV Log Kill: >3.6 log
[3]; TA1538 + S9, 5 μg/plate
  revertant colonies per plate: 7
[3]; TA1538 + S9, 10 μg/plate
  revertant colonies per plate: −2
[3]; TA1538 − S9, 5 μg/plate
  revertant colonies per plate: −2
[3]; TA1538 − S9, 10 μg/plate
  revertant colonies per plate: −2
[4]; TA100 + S9, 5 μg/plate
  revertant colonies per plate: −10
[4]; TA100 + S9, 10 μg/plate
  revertant colonies per plate: −3
[4]; TA100 − S9, 5 μg/plate
  revertant colonies per plate: −41
[4]; TA100 − S9, 10 μg/plate
  revertant colonies per plate: 3

## Cc1oc2c(C)c3oc(=O)cc(C)c3cc2c1CNCCCCCN [Compound 10, 4′-(7-amino-2-aza)heptyl-4,5′,8-trimethylpsoralen]
R17 bacteriophage [5]
  R17 inactivation efficiency compared with AMT (in words): more efficient at inactivating R17 than was AMT
HIV-1; [22]
  HIV Log Kill: 2.0 log
HIV-1; [23]
  HIV Log Kill: >3.5 log
HIV-1; [24]
  HIV Log Kill: >3.5 log

## Cc1oc2c(C)c3oc(=O)cc(C)c3cc2c1CNCCCNCCCN [Compound 12, 4′-(9-amino-2,6-diaza)nonyl-4,5′,8-trimethylpsoralen]
R17 bacteriophage [5]
  R17 inactivation efficiency compared with AMT (in words): more efficient at inactivating R17 than was AMT
HIV-1; [22]
  HIV Log Kill: 0.4 log
HIV-1; [23]
  HIV Log Kill: 0.8 log
HIV-1; [24]
  HIV Log Kill: 1.3 log

## Cc1oc2c(C)c3oc(=O)cc(C)c3cc2c1CNCCCNCCCCNCCCN [Compound 15, 4′-(14-amino-2,6,11-triaza)tetradecyl-4,5′,8-trimethylpsoralen]
R17 bacteriophage [5]
  R17 inactivation efficiency compared with AMT (in words): more efficient at inactivating R17 than was AMT

From US6544727B1, “Methods and devices for the removal of psoralens from blood products” (Cerus Corporation, priority 1995, dated 2003)
